Laboratory results published in article PMC6297231 (Nature Communications, 2018).
Where two headings read alike, the source gives them in different places.

Experiments:
[1] = tested on: MOLM-13 leukemic cells; assay: MOLM-13 disseminated AML model; assay type: in vivo, mice; conditions: venetoclax 100 mg kg^−1 p.o. daily, AZD5991 60 mg kg^−1 i.v. weekly, after 10 days
Text: MOLM-13: These studies complied with all relevant ethical regulations described in the guidelines established by GV-SOLAS Institutional Animal Care and Use Committee. Female CIEA-NOG mice were purchased from Taconic. Mice between 5 and 8 weeks old were tail vein injected with five million MOLM-13 cells. Treatment started 3 days after implantation. AZD5991, venetoclax, and vehicle were formulated and administered as mentioned above. Bone marrow and peripheral blood were collected 10 days post-treatment initiation, followed by red cell lysis (ACK lysis buffer), washes with FC buffer (PBS + 2% FCS) and cell staining with AquaZombie live/dead stain (cat#423102, Biolegend) containing antibodies against human CD45 (cat#564105, BDBiosciences) and human HLA-ABC (cat#561346, BDBiosciences) or isotype controls (mIgG1 cat#552834, BDBiosciences; mIgG1 cat#561504, BDBiosciences). Samples were washed with FC buffer and data acquired on an Attune NXT cytometer and analyzed using FlowJo software. Gating was performed on single/live/FCS vs. SSC/HLA-ABC vs. hCD45 double positive cells (Supplementary Figure 8).

[2] = tested on: MOLP8; assay: Cell viability assay; assay type: cell-based; conditions: Homo sapiens, MOLP-8, 24 h; MOLP8 (MM); read-out: AZD5991 24h GI50
[3] = tested on: EJM; assay: Cell viability assay; assay type: cell-based; conditions: Homo sapiens, 24 h; EJM (MM); read-out: AZD5991 24h GI50
Method: (§1) Cells were plated at 3000 cells/well in 384-well white plates in corresponding cell growth media. […] Caspase-3/7 activation was subsequently determined using a Caspase-Glo 3/7 Reagent (Promega) and viability was assayed using the CellTiter-Glo Reagent (Promega) as described in manufacturer’s instructions. Dose–response curves for caspase-3/7 activation and viability were plotted and analyzed (including EC50 and GI50 determination) using GraphPad Prism.

[4] = tested on: LP1; assay: Cell viability assay; assay type: cell-based; conditions: Homo sapiens, LP-1, 24 h; LP1 (MM); read-out: AZD5991 24h GI50
Method: as §1

[5] = tested on: KMS12PE; assay: Cell viability assay; assay type: cell-based; conditions: Homo sapiens, KMS-12-PE, 24 h; KMS12PE (MM); read-out: AZD5991 24h GI50
Method: as §1

[6] = tested on: MV411; assay: Cell viability assay; assay type: cell-based; conditions: Homo sapiens, MV4-11, 24 h; MV411 (AML); read-out: AZD5991 24h GI50
Method: as §1

[7] = tested on: Kasumi3; assay: Cell viability assay; assay type: cell-based; conditions: Kasumi-3, 24 h; Kasumi3 (AML); read-out: AZD5991 24h GI50
Method: as §1

[8] = tested on: PL21; assay: Cell viability assay; assay type: cell-based; conditions: PL-21, 24 h; PL21 (AML); read-out: AZD5991 24h GI50
Method: as §1

[9] = tested on: OCIAML3; assay: Cell viability assay; assay type: cell-based; conditions: Homo sapiens, OCI-AML-3, 24 h, read-out: AZD5991 24h GI50
Method: as §1

[10] = tested on: OCIAML5; assay: Cell viability assay; assay type: cell-based; conditions: Homo sapiens, OCI-AML-5, 24 h, read-out: AZD5991 24h GI50
Method: as §1

[11] = tested on: OCIM1; assay: Cell viability assay; assay type: cell-based; conditions: OCI-M1, 24 h; OCIM1 (AML); read-out: AZD5991 24h GI50
Method: as §1

[12] = tested on: HBL1; assay: Cell viability assay; assay type: cell-based; conditions: 24 h; HBL1 (NHL); read-out: AZD5991 24h GI50
Method: as §1

[13] = tested on: Raji; assay: Cell viability assay; assay type: cell-based; conditions: Homo sapiens, 24 h; Raji (NHL); read-out: AZD5991 24h GI50
Method: as §1

[14] = tested on: RCPIWM1; assay: Cell viability assay; assay type: cell-based; conditions: 24 h; RCPIWM1 (NHL); read-out: AZD5991 24h GI50
Method: as §1

[15] = tested on: Toledo; assay: Cell viability assay; assay type: cell-based; conditions: Homo sapiens, 24 h; Toledo (NHL); read-out: AZD5991 24h GI50
Method: as §1

[16] = tested on: U2932; assay: Cell viability assay; assay type: cell-based; conditions: Homo sapiens, 24 h; U2932 (NHL); read-out: AZD5991 24h GI50
Method: as §1

[17] = tested on: H1703; assay: Cell viability assay; assay type: cell-based; conditions: Homo sapiens, NCI-H1703, 24 h; H1703 (Lung); read-out: AZD5991 24h GI50
Method: as §1

[18] = tested on: H460; assay: Cell viability assay; assay type: cell-based; conditions: Homo sapiens, NCI-H460, 24 h; H460 (Lung); read-out: AZD5991 24h GI50
Method: as §1

[19] = tested on: G361; assay: Cell viability assay; assay type: cell-based; conditions: Homo sapiens, G-361, 24 h; G361 (Skin); read-out: AZD5991 24h GI50
Method: as §1

[20] = tested on: DU145; assay: Cell viability assay; assay type: cell-based; conditions: Homo sapiens, DU-145, 24 h; DU145 (Urology); read-out: AZD5991 24h GI50
Method: as §1

[21] = tested on: OE21; assay: Cell viability assay; assay type: cell-based; conditions: 24 h; OE21 (Others); read-out: AZD5991 24h GI50
Method: as §1

[22] = tested on: MOLM13; assay: Caspase-3/7 activation assay; assay type: cell-based; conditions: Homo sapiens, MOLM-13, 6 h
Method: as §1

[23] = tested on: primary MM cells; conditions: 48 MM patients, 24 h, Annexin V by flow
[24] = tested on: Eμ-Myc lymphoma cells stably expressing human Bcl-xL; assay: Apoptosis induction in Eμ-Myc lymphoma cells; conditions: overexpression of Bcl-xL, 24 h
Text: The retroviral plasmids to express human Bcl-2 family members in murine Eμ-Myc lymphoma cells are MSCV-hMCL-1-GFP, MSCV-hBCL-2-GFP, MSCV-hBCL-XL-GFP, MSCV-hBFL-1/A1-GFP, and MSCV-hBCL-w-GFP. To produce viruses, constructs of interest were co-transfected into HEK293T cells with the plasmid encoding the packaging viruses (p-CL-AMPHO provided by Phillip Darcy from Peter MacCallum Cancer Center, Melbourne, Australia) using standard calcium phosphate transient transfection technique. The retroviruses were harvested, filtered and used to infect target cells following standard procedures.
Samples were then centrifuged, washed twice with PBS and analyzed by flow cytometry in a BD LSRFortessa. FACSDiva software was used for data collection and FlowJo software for data analysis.

Question: What does the source list for `Cc1c2c(nn1C)CSCc1cc(n(C)n1)CSc1cc(c3ccccc3c1)OCCCc1c(C(=O)O)n(C)c3c-2c(Cl)ccc13` (atropisomer, axis not shown; (Ra)) [(Ra)-7]?
Answer: percentage of HLA-ABC+ hCD45+ leukemic cells in peripheral blood vs. vehicle [1]: significantly reduced; percentage of leukemic cells in bone marrow [1]: reduced; GI50 [2]: 52 nM; GI50 [3]: 105 nM; GI50 [4]: 258 nM; GI50 [5]: 329 nM; GI50 [6]: 13 nM; GI50 [7]: 172 nM; GI50 [8]: 403 nM; GI50 [9]: 714 nM; GI50 [10]: 11000 nM; GI50 [11]: 27700 nM; GI50 [12]: 8320 nM; GI50 [13]: 167 nM; GI50 [14]: 20 nM; GI50 [15]: 113 nM; GI50 [16]: 15500 nM; GI50 [17]: 346 nM; GI50 [18]: 26400 nM; GI50 [19]: 404 nM; GI50 [20]: 26800 nM; GI50 [21]: > 30000 nM; EC50 ([22]; read-out: 6h caspase EC50, MOLM13, single agent): 108 nM; EC50 ([22]; read-out: AZD5991 6h EC50, MOLM13 (AML), caspase 3/7 activation): 63 nM; MM primary samples with EC50 values below 100 nM [23]: 71%; apoptosis-inducing activity [24]: blocked
